The target in data set [1] is Voltage-gated inwardly rectifying potassium channel KCNH2 (Homo sapiens, UniProt Q12809). Put plainly: Displacement of [3H]dofetilide from human ERG.
In data set [2] the target is T1, C-C chemokine receptor type 2 (Homo sapiens, UniProt P41597).
Description: Displacement of [125I]MCP1 from human CCR2 in PBMC after 30 mins by gamma counting
Data set [3] deals with T1, C-C chemokine receptor type 2. Put plainly: Antagonist activity at CCR2 receptor in human whole blood assessed as inhibition of alexa-tagged MCP-induced effect 30 mins by flow cytometry. The class given is functional, tissue-based.
A further data set deals with hERG (KCNH2) (Homo sapiens, UniProt Q12809). The experiment in a line: Inhibition of human ERG at 10 uM by patch clamp assay. A general note: In patch-clamp work, channel activity is measured electrically.
hERG (KCNH2), sequence (Q12809 whole entry): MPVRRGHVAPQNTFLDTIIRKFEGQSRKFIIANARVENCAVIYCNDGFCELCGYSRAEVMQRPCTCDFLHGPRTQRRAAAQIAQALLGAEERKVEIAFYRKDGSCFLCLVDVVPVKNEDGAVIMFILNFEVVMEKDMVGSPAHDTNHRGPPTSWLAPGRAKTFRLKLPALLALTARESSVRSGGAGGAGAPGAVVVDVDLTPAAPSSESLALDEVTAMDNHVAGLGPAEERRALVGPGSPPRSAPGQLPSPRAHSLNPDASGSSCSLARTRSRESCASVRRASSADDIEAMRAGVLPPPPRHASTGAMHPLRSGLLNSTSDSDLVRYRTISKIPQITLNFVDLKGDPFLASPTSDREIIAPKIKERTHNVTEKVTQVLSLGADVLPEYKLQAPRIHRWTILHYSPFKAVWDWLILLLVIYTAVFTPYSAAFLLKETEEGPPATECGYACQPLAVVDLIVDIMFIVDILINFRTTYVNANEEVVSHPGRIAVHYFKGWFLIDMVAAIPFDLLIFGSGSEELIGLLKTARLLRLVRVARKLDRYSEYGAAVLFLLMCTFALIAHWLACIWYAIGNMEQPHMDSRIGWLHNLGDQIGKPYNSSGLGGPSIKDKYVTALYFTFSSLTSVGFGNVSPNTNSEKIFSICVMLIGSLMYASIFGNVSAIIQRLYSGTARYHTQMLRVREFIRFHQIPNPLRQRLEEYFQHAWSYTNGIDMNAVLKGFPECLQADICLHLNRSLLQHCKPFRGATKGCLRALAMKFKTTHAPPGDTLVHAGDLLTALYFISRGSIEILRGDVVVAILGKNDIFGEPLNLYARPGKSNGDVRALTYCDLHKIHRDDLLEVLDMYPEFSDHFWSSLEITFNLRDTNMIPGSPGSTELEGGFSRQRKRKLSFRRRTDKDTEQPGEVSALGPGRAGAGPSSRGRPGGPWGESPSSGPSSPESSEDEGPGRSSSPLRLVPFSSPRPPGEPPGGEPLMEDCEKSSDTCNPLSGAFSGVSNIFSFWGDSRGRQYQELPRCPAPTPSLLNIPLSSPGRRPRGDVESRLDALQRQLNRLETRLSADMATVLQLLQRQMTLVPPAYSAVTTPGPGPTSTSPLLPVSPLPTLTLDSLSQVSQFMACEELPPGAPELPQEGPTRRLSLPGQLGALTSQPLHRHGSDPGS

pIC50: −log10 of the molar value.

Voltage-gated inwardly rectifying potassium channel KCNH2, sequence (Q12809 whole entry): as above
T1 sequence (P41597 whole entry): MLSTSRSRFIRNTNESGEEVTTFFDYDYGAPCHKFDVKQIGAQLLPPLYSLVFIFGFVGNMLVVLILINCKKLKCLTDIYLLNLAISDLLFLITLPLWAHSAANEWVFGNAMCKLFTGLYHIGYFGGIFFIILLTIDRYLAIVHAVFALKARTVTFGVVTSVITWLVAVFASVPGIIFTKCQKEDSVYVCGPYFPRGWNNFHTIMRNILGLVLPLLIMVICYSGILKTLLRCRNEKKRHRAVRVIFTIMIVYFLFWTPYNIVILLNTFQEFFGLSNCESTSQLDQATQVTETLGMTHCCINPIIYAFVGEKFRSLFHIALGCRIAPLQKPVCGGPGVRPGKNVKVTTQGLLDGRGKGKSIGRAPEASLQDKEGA

As usually defined, the pIC50 is −log10 of the IC50, conventionally taken in molar units. The molecule `O=C(NCC(=O)N1CC[C@H](N[C@H]2CC[C@@](O)(c3ccc(-c4cccnc4)cn3)CC2)C1)c1cccc(C(F)(F)F)c1` gave a pIC50 in data set [1] of 4.52.

Molecule `O=C(NCC(=O)N1CC[C@H](N[C@H]2CC[C@@](O)(c3nccs3)CC2)C1)c1cccc(C(F)(F)F)c1` had a pIC50 in data set [2] of 7.74.

In the case of `O=C(N1CC[C@H](N[C@H]2CC[C@@](O)(c3ccc(-c4ncccn4)cn3)CC2)C1)C1(O)CCN(c2cc(C(F)(F)F)ccn2)CC1`, the pIC50 is 8.48 in data set [2], 7.48 in data set [3] and under 4.52 in data set [1].

As to `O=C(NCC(=O)N1CC[C@H](N[C@H]2CC[C@@H](c3ccccc3)CC2)C1)c1cccc(C(F)(F)F)c1`, in data set [2], the pIC50 is 7.46.

With `N#Cc1ccnc(N2CCC(C(=O)N3CC[C@H](N[C@H]4CC[C@@](O)(c5ccc(-c6ncccn6)cn5)CC4)C3)CC2)c1`, the pIC50 in data set [2] is 7.96; in data set [3] it was 7.48.

By inhibition is commonly meant how much of the control response was suppressed. A high value points to strong suppression. In turn, `O=C(NCC(=O)N1CC[C@H](N[C@H]2CC[C@@](O)(c3ccccn3)CC2)C1)c1cccc(C(F)(F)F)c1` gave a pIC50 in data set [1] of under 4.52. Moreover, the inhibition at 10 µM against hERG (KCNH2) was found to be 34%.

Turning to `O=C(NCC(=O)N1CC[C@H](N[C@H]2CC[C@@](O)(c3ccc(-c4cnccn4)cn3)CC2)C1)c1cccc(C(F)(F)F)c1`, the negative-log IC50 (pIC50) in data set [1] is under 4.52. Also, 10 µM produced 70% inhibition against hERG (KCNH2).

For the molecule `O=C(C1CCN(c2cc(C(F)(F)F)ncn2)CC1)N1CC[C@H](N[C@H]2CC[C@@](O)(c3ccc(-c4ncccn4)cn3)CC2)C1`, the results for the negative-log IC50 (pIC50) in data set [2], in data set [3] and in data set [1] were 8.00, 7.40 and under 4.52, respectively.

With `Cc1ccc([C@]2(O)CC[C@H](N[C@H]3CCN(C(=O)CNC(=O)c4cccc(C(F)(F)F)c4)C3)CC2)nc1`, in data set [1], the pIC50 was 4.62. For the same molecule, testing at 10 µM against hERG (KCNH2) gave an inhibition of 71%.

`O=C(C1CCN(c2nccc(C(F)(F)F)n2)CC1)N1CC[C@H](N[C@H]2CC[C@@](O)(c3ccc(-c4ncccn4)cn3)CC2)C1`: the pIC50 in data set [2] is 8.27; in data set [3] it was 7.54.

Regarding `COc1ccc([C@]2(O)CC[C@H](N[C@H]3CCN(C(=O)CNC(=O)c4cccc(C(F)(F)F)c4)C3)CC2)cn1`, in data set [2], the pIC50 is 7.02.

For the molecule `O=C(C1CCN(c2cccc(C(F)(F)F)n2)CC1)N1CC[C@H](N[C@H]2CC[C@@](O)(c3ccc(-c4ncccn4)cn3)CC2)C1`, the pIC50 in data set [2] is 8.35; in data set [3], 7.06.

As for `O=C(C1CCN(c2cccc(C(F)(F)F)c2)CC1)N1CC[C@H](N[C@H]2CC[C@@](O)(c3ccc(-c4ncccn4)cn3)CC2)C1`, the negative logarithm of the IC50 (pIC50) was 8.44 in data set [2], 7.43 in data set [3] and 5.05 in data set [1].

The molecule `CN([C@H]1CCN(C(=O)CNC(=O)c2cccc(C(F)(F)F)c2)C1)[C@H]1CC[C@@H](c2ccccc2)CC1` showed a negative-log IC50 (pIC50) in data set [2] of 7.08.

`O=C(NCC(=O)N1CC[C@@H](N[C@H]2CC[C@@H](c3ccccc3)CC2)C1)c1cccc(C(F)(F)F)c1` gave a pIC50 in data set [2] of 6.07.

Turning to `O=C(C1CCN(c2cc(C(F)(F)F)ccn2)CC1)N1CC[C@H](N[C@H]2CC[C@@](O)(c3ccc(-c4ncccn4)cn3)CC2)C1`, the figures for the pIC50 in data set [2], in data set [3] and in data set [1] were 8.48, 7.92 and 4.55, respectively.

In data set [2], `O=C(NCC(=O)N1CC[C@H](N[C@H]2CC[C@@](O)(c3ccccc3)CC2)C1)c1cccc(C(F)(F)F)c1` had a pIC50 of 7.19.

As to `O=C(NCC(=O)N1CC[C@H](N[C@H]2CC[C@@](O)(c3ccc(-c4nccs4)cn3)CC2)C1)c1cccc(C(F)(F)F)c1`, the pIC50 in data set [1] is under 4.52. For the same molecule, at hERG (KCNH2), at 10 µM the inhibition was 85%.

The values are drawn from ChEMBL document CHEMBL2029240 (ACS Med Chem Lett, 2011).
